Experimental data reported in PubChem BioAssay (NCI).
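Dose response: 5 concentrations. Exposure: 48 h. Format: 96-well plates. Endpoint: linear interpolation; highest concentration if not reached. The concentration for full growth arrest is given as TGI.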 *1 amine or outer side, *2 acyl side, *3 side chain or, on linkers, in order; H or OH if unused. Where a SMILES comes first, the peptide text is derived from it. Bridges are numbered along the chain shown (N, C = ends). Roman numbers before positions name the chains, in order. [ ]: non-standard residue; d: D form. Actinocin(9to1) = Cc1c2oc3c(C)ccc(C(=O)[*:1])c3nc-2c(C(=O)[*:2])c(N)c1=O; Hyp = O=C(O)[CH]1C[CH](O)CN1; NMeV = CN[CH](C(=O)O)C(C)C; Sar = CNCC(=O)O

Tests used:
Assay in all cases: NCI-60 cell line screen, 48 h
[1] = system: SNB-75 CNS
[2] = system: ACHN renal
[3] = system: SNB-19 CNS
[4] = system: MALME-3M melanoma
[5] = system: MOLT-4 leukemia
[6] = system: HOP-92 NSCLC
[7] = system: HS 578T breast
[8] = system: CAKI-1 renal
[9] = system: A498 renal
[10] = system: NCI-H522 lung
[11] = system: HCC-2998 colon
[12] = system: A549 NSCLC
[13] = system: HL-60(TB) leukemia
[14] = system: OVCAR-5 ovarian
[15] = system: MDA-MB-435
[16] = system: SK-MEL-2 melanoma
[17] = system: HCT-15 colon
[18] = system: SK-MEL-5 melanoma
[19] = system: TK-10 renal
[20] = system: SK-OV-3 ovarian
[21] = system: EKVX NSCLC
[22] = system: K-562 leukemia
[23] = system: OVCAR-8 ovarian
[24] = system: 786-0 renal
[25] = system: SF-539 CNS
[26] = system: UACC-257 melanoma
[27] = system: COLO 205 colon
[28] = system: SF-295 CNS
[29] = system: MDA-N
[30] = system: CCRF-CEM leukemia
[31] = system: SF-268 CNS
[32] = system: T-47D breast
[33] = system: SR leukemia
[34] = system: NCI-H23 lung
[35] = system: HOP-62 NSCLC
[36] = system: RPMI-8226 leukemia
[37] = system: M14 melanoma
[38] = system: MDA-MB-231 breast
[39] = system: KM12 colon
[40] = system: NCI/ADR-RES ovarian
[41] = system: UO-31 renal
[42] = system: NCI-H460 lung
[43] = system: HT29 colon
[44] = system: IGROV1 ovarian
[45] = system: NCI-H226 lung
[46] = system: RXF 393 renal
[47] = system: HCT-116 colon
[48] = system: SW-620 colon
[49] = system: SK-MEL-28 melanoma
[50] = system: SN12C renal
[51] = system: MCF7 breast
[52] = system: LOX IMVI melanoma
[53] = system: PC-3 prostate
[54] = system: U251 CNS
[55] = system: DU-145 prostate
[56] = system: OVCAR-3 ovarian
[57] = system: OVCAR-4 ovarian
[58] = system: BT-549 breast

With `Cc1c2oc3c(C)ccc(C(=O)NC4C(=O)NC(C(C)C)C(=O)N5CC(O)CC5C(=O)N(C)CC(=O)N(C)C(C(C)C)C(=O)OC4C)c3nc-2c(C(=O)NC2C(=O)NC(C(C)C)C(=O)N3CC(O)CC3C(=O)N(C)CC(=O)N(C)C(C(C)C)C(=O)OC2C)c(N)c1=O` (configuration not stated) (I: TV[Hyp][Sar][NMeV] / II: TV[Hyp][Sar][NMeV]; ester I:1-I:C, II:1-II:C; linker I:N-II:N via Actinocin(9to1); configuration not given here) the TGI [1] was over 1 µM, the TGI [2] was over 1 µM and the TGI [3] was over 1 µM. For the same molecule, the TGI [4] was over 1 µM, the TGI [5] was over 1 µM and the TGI [6] was over 1 µM. For the same molecule, the TGI [7] was over 1 µM, the TGI [8] was over 1 µM and the TGI [9] was over 1 µM. The TGI [10] was over 1 µM, the TGI [11] was over 1 µM and the TGI [12] was over 1 µM. For the same molecule, the TGI [13] was over 1 µM, the TGI [14] was over 1 µM and the TGI [15] was over 1 µM. The TGI [16] was over 1 µM, the TGI [17] was over 1 µM and the TGI [18] was over 1 µM. For the same molecule, the TGI [19] was over 1 µM, the TGI [20] was over 1 µM and the TGI [21] was over 1 µM. The TGI [22] was over 1 µM, the TGI [23] was over 1 µM and the TGI [24] was over 1 µM. The TGI [25] was over 1 µM, the TGI [26] was over 1 µM and the TGI [27] was over 1 µM. It also gave a TGI [28] of over 1 µM, a TGI [29] of over 1 µM and a TGI [30] of over 1 µM. The TGI [31] was over 1 µM, the TGI [32] was over 1 µM and the TGI [33] was over 1 µM. For the same molecule, the TGI [34] was over 1 µM, the TGI [35] was over 1 µM and the TGI [36] was over 1 µM. It also gave a TGI [37] of over 1 µM, a TGI [38] of over 1 µM and a TGI [39] of over 1 µM. For the same molecule, the TGI [40] was over 1 µM, the TGI [41] was over 1 µM and the TGI [42] was over 1 µM. It also gave a TGI [43] of over 1 µM, a TGI [44] of over 1 µM and a TGI [45] of over 1 µM. It also gave a TGI [46] of over 1 µM, a TGI [47] of over 1 µM and a TGI [48] of over 1 µM. It also gave a TGI [49] of over 1 µM, a TGI [50] of over 1 µM and a TGI [51] of over 1 µM. The TGI [52] was over 1 µM, the TGI [53] was over 1 µM and the TGI [54] was over 1 µM. For the same molecule, the TGI [55] was over 1 µM, the TGI [56] was over 1 µM and the TGI [57] was over 1 µM.

`CCCCCCCCCCCCCCCCCCNC(=S)/N=C/c1c(O)c2ccccc2[nH]c1=O` gave a TGI [1] of 28 µM, a TGI [2] of 30.9 µM and a TGI [3] of 36.3 µM. The TGI [5] was 29.7 µM, the TGI [6] was 32.7 µM and the TGI [8] was 31.6 µM. For the same molecule, the TGI [9] was 36.9 µM, the TGI [11] was 31.1 µM and the TGI [12] was 47.6 µM. For the same molecule, the TGI [13] was 17.9 µM, the TGI [14] was 31.2 µM and the TGI [15] was 42.3 µM. The TGI [16] was 52.2 µM, the TGI [58] was 38 µM and the TGI [17] was 29.4 µM. It also gave a TGI [18] of 70.7 µM, a TGI [19] of 56.1 µM and a TGI [20] of 49.1 µM. It also gave a TGI [21] of 29.6 µM, a TGI [23] of 29.6 µM and a TGI [24] of 29.8 µM. The TGI [25] was 43.1 µM, the TGI [26] was 37.1 µM and the TGI [27] was 32.9 µM. For the same molecule, the TGI [28] was 47.9 µM, the TGI [29] was 35.3 µM and the TGI [31] was 29.5 µM. The TGI [32] was 90.5 µM, the TGI [34] was 37.5 µM and the TGI [35] was 33 µM. The TGI [37] was 35.5 µM, the TGI [38] was 30.3 µM and the TGI [39] was 30.9 µM. The TGI [40] was 35.1 µM, the TGI [41] was 32.6 µM and the TGI [42] was 32.6 µM. It also gave a TGI [43] of 30.9 µM, a TGI [44] of 21.2 µM and a TGI [45] of 63.3 µM. The TGI [46] was 53.5 µM, the TGI [47] was 30.4 µM and the TGI [48] was 42.4 µM. It also gave a TGI [49] of 40.4 µM, a TGI [50] of 41 µM and a TGI [51] of 48.3 µM. It also gave a TGI [52] of 32.2 µM, a TGI [54] of 40.5 µM and a TGI [55] of 29.7 µM. The TGI [56] was 37.8 µM and the TGI [57] was 41 µM.
